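Following 48 hours of exposure in 96-well plates, responses at five concentrations were used to interpolate endpoints linearly. GI50 = concentration required for 50% inhibition of growth. At the TGI there is no net growth.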 A value given as a limit tells only on which side of the number the result lay.

Experimental findings from PubChem BioAssay (NCI) are described below.

Test systems include KM20L2 colon; XF 498 CNS; LXFL 529 NSCLC; M19-MEL melanoma; HOP-18 NSCLC; RXF-631 renal; DMS 114 small cell lung; DMS 273 small cell lung; MDA-N; P388/ADR leukemia; P388 leukemia.
Common to all, as to test: NCI tumour cell line growth inhibition, 48 h

Turning to `CCOc1ccc(NC(=O)CC2C(=O)Nc3ccccc3S2(=O)=O)cc1` (centres undefined), the TGI in the assay on KM20L2 colon, in the assay with XF 498 CNS, in the assay with LXFL 529 NSCLC, in the assay on M19-MEL melanoma, with HOP-18 NSCLC and with RXF-631 renal was more than 100 µM each time. Also, the TGI in the assay with DMS 114 small cell lung was more than 100 µM.
As for `C=CCc1cc(OC)c2c(c1)C(OC)CC(c1ccc(OC)c(OC)c1)O2` (centres undefined), the TGI in the assay with KM20L2 colon, in the assay with XF 498 CNS, in the assay on DMS 273 small cell lung, in the assay with LXFL 529 NSCLC, with M19-MEL melanoma and in the assay on RXF-631 renal was more than 100 µM each time. In the assay on DMS 114 small cell lung, the TGI is more than 100 µM.
`Cc1ccc(S(=O)(=O)NC(CN)C(=O)O)cc1` (centres undefined) showed a TGI in the assay on MDA-N of more than 100 µM.
As to `CCSc1c2ccccc2c(-c2nc(F)nc(F)n2)n1CCc1ccccc1`, the TGI in the assay on KM20L2 colon, with XF 498 CNS, with DMS 273 small cell lung, in the assay with LXFL 529 NSCLC, in the assay on M19-MEL melanoma and in the assay with RXF-631 renal was more than 100 µM throughout. For the same compound, the TGI in the assay on DMS 114 small cell lung is more than 100 µM.
Consider `NS(=O)(=O)OCCCCCCCOS(N)(=O)=O`, for which the TGI came to 1470 µM in the assay on KM20L2 colon; 112 µM in the assay with XF 498 CNS; 454 µM with DMS 273 small cell lung; 2060 µM with P388/ADR leukemia; 1300 µM with M19-MEL melanoma; 2350 µM in the assay with HOP-18 NSCLC. Also, the TGI in the assay with P388 leukemia worked out at 1300 µM; with MDA-N, 1210 µM; in the assay with DMS 114 small cell lung it was 669 µM.
For `Nc1ncnc2c1ncn2C1CC(OCc2ccccc2[N+](=O)[O-])C(CO)O1` (centres undefined), the TGI is more than 50 µM in the assay on KM20L2 colon; more than 50 µM in the assay with XF 498 CNS; more than 50 µM in the assay with DMS 273 small cell lung; more than 50 µM in the assay on LXFL 529 NSCLC; 48.5 µM with M19-MEL melanoma; more than 50 µM in the assay with HOP-18 NSCLC. For the same compound, the TGI in the assay on DMS 114 small cell lung came out at 47.2 µM.
`CC1(c2ccc(Cl)cc2)C2C(=O)NC(=O)C1C(=O)NC2=O` (centres undefined): the TGI in the assay with KM20L2 colon, in the assay on XF 498 CNS, with DMS 273 small cell lung, in the assay on LXFL 529 NSCLC and in the assay on M19-MEL melanoma was more than 100 µM in each case.
Take `CCOC(=O)C1(C)CCCCC(=O)N1` (centres undefined): the TGI in the assay on KM20L2 colon, in the assay on XF 498 CNS, with DMS 273 small cell lung, in the assay with LXFL 529 NSCLC, in the assay on M19-MEL melanoma and in the assay on HOP-18 NSCLC was more than 100 µM throughout. Besides, the TGI in the assay on RXF-631 renal and with DMS 114 small cell lung was more than 100 µM each time.
For the compound `COC(=O)C=Cc1ccc2nncnc2c1` (mixture of isomers), in the assay on MDA-N, the TGI was determined as 46.1 µM.
Same read-out and setting: under `Cc1cc(N2CCN(C)CC2)n2nc(-c3ccc(Cl)cc3)nc2n1` stands more than 100 µM.
Consider `COc1ccc(/C=C/C(=O)c2sc(-n3nc(-c4ccccc4)cc3-c3ccccc3)nc2C)cc1`, for which the TGI with KM20L2 colon, in the assay on XF 498 CNS, in the assay with LXFL 529 NSCLC, in the assay with M19-MEL melanoma, in the assay with HOP-18 NSCLC and in the assay with RXF-631 renal was more than 100 µM each time. The TGI in the assay on DMS 114 small cell lung is more than 100 µM. Moreover, the GI50 in the assay on LXFL 529 NSCLC, in the assay on M19-MEL melanoma, in the assay on HOP-18 NSCLC and with RXF-631 renal was more than 100 µM in each case.
Consider `CC(=O)[O][Hg][c]1c(C)c(C)cc(C)c1C`, for which, in the assay on MDA-N, the GI50 is 0.83 µM and the TGI is 2.08 µM.
In the case of `CCc1nc(N)nc(N)c1-c1ccc(N2CCNCC2)cc1`, the TGI with MDA-N is more than 100 µM.
Turning to `Cn1nc(-c2ccccc2)c2c(/C=C/c3ccccc3)onc2c1=O`, the TGI in the assay on KM20L2 colon was more than 100 µM; in the assay with XF 498 CNS it was 72.4 µM; in the assay on LXFL 529 NSCLC, more than 100 µM; in the assay on M19-MEL melanoma, more than 100 µM; with HOP-18 NSCLC, more than 100 µM; in the assay with RXF-631 renal it was more than 100 µM. For the same compound, in the assay with DMS 114 small cell lung, the TGI was more than 100 µM.
Take `CC(=O)O[C@H]1CC[C@@]2(C)C(=CC[C@@H]3C2CC[C@]2(C)Nc4nc5ccccc5cc4CC32)C1` (some centres undefined): the TGI in the assay on KM20L2 colon worked out at 3.66 µM; in the assay with XF 498 CNS, 18.5 µM; in the assay with DMS 273 small cell lung, 13.8 µM; with LXFL 529 NSCLC, 12 µM; in the assay on M19-MEL melanoma, 12.2 µM; in the assay on HOP-18 NSCLC it was 13.5 µM. Also, the TGI with DMS 114 small cell lung was 18 µM.
Consider `CC(=O)C1=C(O)C2C3c4c[nH]c5cccc(c45)CC3C(C)(C)N2C1=O` (centres undefined), for which the TGI in the assay on KM20L2 colon was more than 100 µM; in the assay with XF 498 CNS, more than 100 µM; in the assay on DMS 273 small cell lung it was more than 100 µM; in the assay with LXFL 529 NSCLC it was more than 100 µM; in the assay with M19-MEL melanoma it was more than 100 µM; in the assay on HOP-18 NSCLC it was 75.8 µM. The compound further came in with a TGI in the assay on DMS 114 small cell lung of more than 100 µM.
In the case of `O=c1[nH]cnc2c1nnn2CCCCCCCCCCCCn1nnc2c(=O)[nH]cnc21`, the TGI with KM20L2 colon, in the assay on DMS 273 small cell lung, in the assay with LXFL 529 NSCLC, in the assay on M19-MEL melanoma, with HOP-18 NSCLC and in the assay with MDA-N was more than 100 µM in each case. This compound yielded a TGI with DMS 114 small cell lung of 39.4 µM.
The compound `O=S(=O)(c1cnccc1N1CCN(CCO)CC1)N1CCCC1` had a TGI with MDA-N of more than 100 µM.
For `CN1c2ccccc2N(C(=O)c2ccccc2)C(CC(=O)O)c2cccn21` (centres undefined), the TGI with KM20L2 colon, with XF 498 CNS, in the assay with DMS 273 small cell lung, in the assay on LXFL 529 NSCLC, with M19-MEL melanoma and in the assay with HOP-18 NSCLC was more than 100 µM in each case. Moreover, the TGI in the assay with RXF-631 renal and in the assay on DMS 114 small cell lung was more than 100 µM throughout.
On to `ClC(Cl)[Si]12OCCN(CCO1)CCO2`, for which the TGI in the assay on DMS 273 small cell lung, in the assay on LXFL 529 NSCLC, in the assay with HOP-18 NSCLC, in the assay with RXF-631 renal and in the assay on DMS 114 small cell lung was more than 100 µM each time.
